Assay results published in US11602567B2, “Methods for modulating RNA splicing” (PTC Therapeutics, Inc., priority 2015, dated 2023).

What was measured:
Experiment in all cases: Endpoint RT-PCR analysis of alternatively spliced mRNAs in cultured cells
Format in all cases: cell-based, human
SMN2 exon 5 = conditions: SMN2 exon 5, sequence ACCAgtaagt; GM03813 cells, 24 hours; without compound 50
Method: (§1) Endpoint RT-PCR Analysis of Alternatively Spliced mRNAs in Cultured Cells GM03813 cells derived from a patient with SMA type I (Coriell Institute) were plated at 5,000 cells/well in 200 μl DMEM with 10% FBS in 96-well plates, and incubated for 6 hours in a cell culture incubator (37° C., 5% CO2, 100% relative humidity). Cells were then treated with Compound 702 at different concentrations (in 0.5% DMSO) in duplicate for 24 hours. After removal of the supernatant, cells were lysed in Cells-To-Ct lysis buffer (Life Technologies, Inc.). Reverse transcription was performed using 5 μl of cell lysate and the iScript RT enzyme kit (Bio-Rad Laboratories, Inc). PCR was performed using 5 μl of cDNA and Platinum Taq HiFi DNA Polymerase (Life Technologies, Inc.) under the following PCR conditions: Step 1: 94° C. (2 min), Step 2: 94° C. (30 sec), Step 3: 55° C. (30 sec), Step 4: 68° C. (1 min), then repeat Steps 2 to 4 for 33 cycles, then hold at 4° C. PCR products were separated on 2% agarose E-gels, stained with ethidium bromide and visualized using a gel imager (UVP). [table]

SMN2 exon 7 = conditions: SMN2 exon 7, sequence AGGAgtaagt; GM03813 cells, 24 hours; % inclusion of exon without compound 40
Method: as §1

COL1A1 exon 32 = conditions: COL1A1 exon 32, sequence CAGAgtaagt; GM03813 cells, 24 hours; without compound 90
Method: as §1

MADD exon 21 = conditions: MADD exon 21, sequence CAGAgtaagg; GM03813 cells, 24 hours; without compound 0
Method: as §1

ERGIC3 exon 8 = conditions: ERGIC3 exon 8, sequence GAGAgtaagt; GM03813 cells, 24 hours; without compound 0
Method: as §1

COL1A1 exon 5 = conditions: COL1A1 exon 5, sequence AGGAgtaagt; GM03813 cells, 24 hours; without compound 0
Method: as §1

[1] = tested on: FOXM1 exon 7A (114 nucleotides); conditions: sequence ATCAgtaagt, GM03813 cells, 24 hours, without compound 0
Method: as §1

COL3A1 exon 10 = conditions: COL3A1 exon 10, sequence CAGAgtaagt; GM03813 cells, 24 hours; without compound 100
Method: as §1

COL1A2 exon 21 = conditions: COL1A2 exon 21, sequence GAGAgtaggt; GM03813 cells, 24 hours; without compound 100
Method: as §1

FADS2 exon 6 = conditions: FADS2 exon 6, sequence CTGAgtaagt; GM03813 cells, 24 hours; without compound 100
Method: as §1

COL1A1 exon 30 = conditions: COL1A1 exon 30, sequence AAGAgtaagt; GM03813 cells, 24 hours; without compound 60
Method: as §1

FN1 exon 35 = conditions: FN1 exon 35, sequence GAGAgtaagt; GM03813 cells, 24 hours; without compound 100
Method: as §1

COL5A2 exon 49 = conditions: COL5A2 exon 49, sequence AAGAgtaagt; GM03813 cells, 24 hours; without compound 90
Method: as §1

STRN3 exon 8 = conditions: STRN3 exon 8, sequence AAGAgtaagt; GM03813 cells, 24 hours; without compound 10
Method: as §1

[2] = tested on: FOXM1 exon 7A […]C (34 nucleotides); conditions: sequence ATGAgtaagt, GM03813 cells, 24 hours, without compound 0
Method: as §1

COL5A2 exon 35 = conditions: COL5A2 exon 35, sequence AAGAgtaagt; GM03813 cells, 24 hours; without compound 100
Method: as §1

COL5A2 exon 13 = conditions: COL5A2 exon 13, sequence CCGAgtaagt; GM03813 cells, 24 hours; without compound 100
Method: as §1

COL1A2 exon 30 = conditions: COL1A2 exon 30, sequence AAGAgtaagt; GM03813 cells, 24 hours; without compound 100
Method: as §1

COL1A1 exon 46 = conditions: COL1A1 exon 46, sequence CCGAgtaagt; GM03813 cells, 24 hours; without compound 100
Method: as §1

GALC exon 5 = conditions: GALC exon 5, sequence TGGAgttagt; GM03813 cells, 24 hours; without compound 90
Method: as §1

PARP1 exon 22 = conditions: PARP1 exon 22, sequence ACGAgtatcc; GM03813 cells, 24 hours; without compound 100
Method: as §1

COL5A2 exon 34 = conditions: COL5A2 exon 34, sequence CAGAgtaagt; GM03813 cells, 24 hours; without compound 100
Method: as §1

GGCT exon 2 = conditions: GGCT exon 2, sequence ATGAgtaggt; GM03813 cells, 24 hours; without compound 40
Method: as §1

COL1A2 exon 22 = conditions: COL1A2 exon 22, sequence CAGAgtaagt; GM03813 cells, 24 hours; without compound 100
Method: as §1

ARMCX6 exon 3 = conditions: ARMCX6 exon 3, sequence TAGAgtatga; GM03813 cells, 24 hours; without compound 0
Method: as §1

LAMA2 exon 5 = conditions: LAMA2 exon 5, sequence AAGAgtaagt; GM03813 cells, 24 hours; without compound 100
Method: as §1

COL5A2 exon 32 = conditions: COL5A2 exon 32, sequence TAGAgtaagt; GM03813 cells, 24 hours; without compound 100
Method: as §1

COL1A1 exon 11 = conditions: COL1A1 exon 11, sequence CAGAgtgagt; GM03813 cells, 24 hours; without compound 100
Method: as §1

VPS29 exon 2 = conditions: VPS29 exon 2, sequence CAGAgtaagt; GM03813 cells, 24 hours; without compound 40
Method: as §1

LARP7 exon 1 = conditions: LARP7 exon 1, sequence CGGAgtaagt; GM03813 cells, 24 hours; without compound 0
Method: as §1

DIAPH3 exon 11 = conditions: DIAPH3 exon 11, sequence TTGAatatcc; GM03813 cells, 24 hours; without compound 100
Method: as §1

LARP7 exon 2 = conditions: LARP7 exon 2, sequence AAGAgtaaga; GM03813 cells, 24 hours; without compound 10
Method: as §1

PRKDC exon 51 = conditions: PRKDC exon 51, sequence GCGAgtacgt; GM03813 cells, 24 hours; without compound 100
Method: as §1

PRKDC exon 11 = conditions: PRKDC exon 11, sequence AGGAgtatgt; GM03813 cells, 24 hours; without compound 100
Method: as §1

APLP2 exon 7 = conditions: APLP2 exon 7, sequence ATGAgtaagt; GM03813 cells, 24 hours; without compound 10
Method: as §1

COL3A1 exon 46 = conditions: COL3A1 exon 46, sequence CAGAgtaagt; GM03813 cells, 24 hours; without compound 100
Method: as §1

RCC 1 exon 4 = conditions: RCC 1 exon 4, sequence AGAGgtaaga; GM03813 cells, 24 hours; without compound 90
Method: as §1

Measured: % Inclusion of Exon with Compound

CCN1CCC(c2cc(C)c3nc(-c4cc5c(C)nc(C)cn5n4)cc(=O)n3c2)CC1 [Compound 702]
10%: ERGIC3 exon 8 | [1] | LARP7 exon 1
5%: MADD exon 21
90%: COL1A1 exon 30 | [2]
100%: SMN2 exon 7 | STRN3 exon 8 | VPS29 exon 2
40%: LARP7 exon 2
95%: GGCT exon 2
30%: APLP2 exon 7
no change: all other assays above
